Results taken from ChEMBL document CHEMBL1201862, “PubChem BioAssay data set” (2004).
Calls of active or inactive are those of the source.

Columns and labels:
Bcl-2-like protein 1 = Bcl-2-like protein 1 (Homo sapiens, UniProt Q07817); assay: BCL-XL inhibitors, dose response, selectivity assay for MCL1 inhibitor project, biochemical, fluorescence polarization, 1536-well (AID 2218)
[1] = molecular target: T1, Endoribonuclease toxin MazF (Escherichia coli K-12, UniProt P0AE70); assay: MazF toxin RNase activators, dose response, biochemical, fluorescence, single-stranded RNA substrate, uHTS hits (AID 588481); format: functional
T1 sequence (P0AE70 whole entry): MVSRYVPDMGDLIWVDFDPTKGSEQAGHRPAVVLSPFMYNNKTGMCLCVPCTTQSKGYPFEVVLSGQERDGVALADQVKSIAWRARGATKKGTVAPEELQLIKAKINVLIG

[2] = molecular target: T1, Endoribonuclease toxin MazF; assay: fluorescent RNA oligo signal without MazF, dose response, counter-screen for MazEF activator project, biochemical, fluorescence, single-stranded RNase substrate (AID 588502); format: functional
[3] = molecular target: Induced myeloid leukemia cell differentiation protein Mcl-1 (Homo sapiens, UniProt Q07820); assay: MCL1-BIM BH3 interaction inhibitors, dose response, biochemical, fluorescence polarization, BIM-BH3 peptide, 1536-well (AID 2217)
Escherichia coli = assay: microbe, parasite or virus in culture
[4] = A High Throughput Confirmatory Assay used to Identify Novel Compounds that Inhibit Mycobacterium Tuberculosis in the absence of Glycerol.; format: functional
[5] = Luminescence Cell-Based Dose Response HTS to Identify Activators of Luciferase Translation or Activity in H4 […] Cells. [Related pubchem assays: 1829 (Project Summary), 1814 (Primary HTS)]; format: functional
[6] = Luminescence Cell-Based Dose Response to Identify Activators of Luciferase Translation or Activity in H4-C Neuroglioblastoma Cells. [Related pubchem assays: 1829 (Project Summary), 1814 (Primary HTS)]; format: functional
H4 = assay: Luminescence Cell-Based Dose Response HTS to Identify Activators of 5'UTR Stem-Loop Driven Prion Protein mRNA Translation in H4 Neuroglioblastoma Cells. [Related pubchem assays: 1829 (Project Summary), 1814 (Primary HTS)]; format: functional; details: Homo sapiens
[7] = Luminescence Cell-Based Dose Response to Identify Activators of 5'UTR Stem-Loop Driven Prion Protein mRNA Translation in H4-C Neuroglioblastoma Cells. [Related pubchem assays: 1829 (Project Summary), 1814 (Primary HTS)]; format: functional
[8] = Luminescence Cell-Based Dose Confirmation to Identify Activators of 5'UTR Stem-Loop Driven Alpha-Synuclein mRNA Translation in H4 Neuroglioblastoma Cells. [Related pubchem assays: 1829 (Project Summary), 1814 (Primary HTS)]; format: functional
BJ [9] = assay: cytotoxicity toward BJ-TERT fibroblasts, dose response, cell-based, RAS-independent, luminescence (AID 1933); format: functional; details: Homo sapiens
[10] = NIH-3T3 fibroblast cytotoxicity, dose response, cytotoxicity control, cell-based, fluorescence, Alamar Blue, secondary assay (AID 2327); format: functional;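 note: NIH-3T3 mouse fibroblasts cultured with fluconazole at 8 µg/mL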
BJ [11] = assay: cytotoxicity toward BJ-TERT-LT-ST fibroblasts, dose response, cell-based, RAS-independent, luminescence (AID 1935); format: functional; details: Homo sapiens;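 note: BJ fibroblasts immortalized with TERT plus LT and ST oncogenes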
[12] = molecular target: G-protein coupled receptor 55 (Homo sapiens, UniProt Q9Y2T6); assay: GPR55 agonists via beta-arrestin recruitment, primary screen, imaging, U2OS cells, beta-arrestin-GFP redistribution (AID 1961); format: functional
[13] = molecular target: T2, Heat shock factor protein 1 (Mus musculus, UniProt P38532); assay: HSF1 potentiators in luciferase reporter cells, confirmation, cell-based, NIH3T3, luminescence, dose retest (AID 435004); format: functional;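 note: stress induced by proteasome inhibitor MG132 added 30 min after compound; luciferase reporter driven by HSF1 response element in NIH3T3 cells; actives raise luminescence as potentiators of the MG132 stress response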
T2 sequence (P38532 whole entry): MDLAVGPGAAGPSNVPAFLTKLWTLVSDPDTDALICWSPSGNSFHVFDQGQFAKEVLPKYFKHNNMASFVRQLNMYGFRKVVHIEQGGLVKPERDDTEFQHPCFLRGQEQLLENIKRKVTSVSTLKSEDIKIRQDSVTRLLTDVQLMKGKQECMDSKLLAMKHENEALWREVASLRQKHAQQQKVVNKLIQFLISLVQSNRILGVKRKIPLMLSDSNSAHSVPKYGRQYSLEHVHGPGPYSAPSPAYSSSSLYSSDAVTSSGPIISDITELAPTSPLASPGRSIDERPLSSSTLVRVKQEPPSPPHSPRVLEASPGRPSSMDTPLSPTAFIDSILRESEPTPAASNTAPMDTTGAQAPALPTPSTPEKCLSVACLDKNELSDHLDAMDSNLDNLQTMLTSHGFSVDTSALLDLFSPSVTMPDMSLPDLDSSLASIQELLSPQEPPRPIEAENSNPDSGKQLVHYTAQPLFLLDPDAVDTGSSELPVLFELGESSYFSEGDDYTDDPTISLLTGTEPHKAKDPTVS

[14] = cytotoxicity toward DRD oncogenic fibroblasts, dose response, cell-based, non-viral oncogenic, luminescence (AID 1934); format: functional; details: Homo sapiens
Galanin receptor type 2 = Galanin receptor type 2 (Homo sapiens, UniProt O43603); assay: Dose Response cell-based high-throughput screening assay to identify antagonists of galanin receptor 2 (GALR2). [Related pubchem assays: 828, 866 ]; format: functional
[15] = molecular target: T3, High affinity choline transporter 1 (Homo sapiens, UniProt Q9GZV3); assay: CHT inhibitors, dose response, cell-based, 5-point CRC, membrane potential dye (AID 504840); format: functional
T3 sequence (Q9GZV3 whole entry): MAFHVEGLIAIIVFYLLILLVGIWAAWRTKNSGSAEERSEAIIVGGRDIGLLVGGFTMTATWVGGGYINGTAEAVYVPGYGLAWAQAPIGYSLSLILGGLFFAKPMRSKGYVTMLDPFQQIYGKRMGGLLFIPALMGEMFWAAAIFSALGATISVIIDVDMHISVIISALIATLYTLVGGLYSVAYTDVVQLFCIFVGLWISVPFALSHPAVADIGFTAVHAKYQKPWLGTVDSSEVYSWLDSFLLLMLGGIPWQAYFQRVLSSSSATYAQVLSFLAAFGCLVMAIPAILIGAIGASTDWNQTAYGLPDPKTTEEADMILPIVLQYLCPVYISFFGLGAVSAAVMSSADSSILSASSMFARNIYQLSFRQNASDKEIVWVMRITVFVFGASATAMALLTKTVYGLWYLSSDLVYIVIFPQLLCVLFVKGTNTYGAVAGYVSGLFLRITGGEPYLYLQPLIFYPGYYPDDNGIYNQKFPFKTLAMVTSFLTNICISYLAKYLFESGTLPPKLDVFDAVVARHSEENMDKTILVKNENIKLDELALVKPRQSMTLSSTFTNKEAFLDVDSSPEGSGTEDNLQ

BJ [16] = assay: cells; format: functional, cell-based; details: Homo sapiens
[17] = molecular target: Heat shock protein HSP 90-alpha (Homo sapiens, UniProt P07900); format: functional, organism-based
[18] = C. albicans growth with fluconazole, confirmation, fluorescence, retest (AID 2467); format: functional, cell-based
[19] = molecular target: T4, Microphthalmia-associated transcription factor (Homo sapiens, UniProt O75030); assay: TRPM1 promoter luciferase signal decrease, dose response, MITF inhibitor project, cell-based, SK-MEL-5, cherry-picked, set 3 (AID 493073); format: functional
T4 sequence (O75030 whole entry): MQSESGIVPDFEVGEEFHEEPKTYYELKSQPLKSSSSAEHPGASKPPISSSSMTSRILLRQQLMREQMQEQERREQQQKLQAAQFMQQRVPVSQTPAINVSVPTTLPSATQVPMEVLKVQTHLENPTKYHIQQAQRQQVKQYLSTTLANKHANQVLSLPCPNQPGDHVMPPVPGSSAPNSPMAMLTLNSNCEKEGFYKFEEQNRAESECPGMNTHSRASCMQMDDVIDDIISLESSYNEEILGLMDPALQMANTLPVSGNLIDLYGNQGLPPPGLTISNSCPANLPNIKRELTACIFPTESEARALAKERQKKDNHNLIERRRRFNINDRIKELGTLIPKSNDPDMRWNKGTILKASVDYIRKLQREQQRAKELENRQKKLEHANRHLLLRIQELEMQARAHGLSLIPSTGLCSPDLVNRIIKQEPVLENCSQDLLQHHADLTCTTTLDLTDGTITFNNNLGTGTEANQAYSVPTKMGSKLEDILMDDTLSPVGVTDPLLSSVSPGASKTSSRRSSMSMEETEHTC

[20] = molecular target: T5, Mannose-6-phosphate isomerase (Homo sapiens, UniProt P34949); assay: human PMI inhibitors, high substrate, primary screen, biochemical, fluorescence intensity, high mannose 6-phosphate (AID 1220)
T5 sequence (P34949 whole entry): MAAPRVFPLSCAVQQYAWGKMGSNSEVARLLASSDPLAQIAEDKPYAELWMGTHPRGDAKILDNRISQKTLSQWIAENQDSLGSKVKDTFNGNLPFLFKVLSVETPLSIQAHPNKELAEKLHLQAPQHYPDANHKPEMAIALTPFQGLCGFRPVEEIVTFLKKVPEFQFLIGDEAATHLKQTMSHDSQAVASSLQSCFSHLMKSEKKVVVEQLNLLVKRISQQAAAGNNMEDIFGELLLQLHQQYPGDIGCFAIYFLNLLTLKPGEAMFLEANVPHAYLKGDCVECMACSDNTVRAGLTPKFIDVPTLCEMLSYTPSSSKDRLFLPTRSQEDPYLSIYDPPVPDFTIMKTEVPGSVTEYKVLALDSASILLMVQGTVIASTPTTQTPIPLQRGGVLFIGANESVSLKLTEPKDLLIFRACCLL

[21] = molecular target: T5, Mannose-6-phosphate isomerase; assay: inhibitors of human PMI, primary screen, biochemical, fluorescence intensity, coupled assay (AID 1209)
[22] = molecular target: T6, Histone-lysine N-methyltransferase NSD2 (Homo sapiens, UniProt O96028); format: biochemical
T6 sequence (O96028 whole entry): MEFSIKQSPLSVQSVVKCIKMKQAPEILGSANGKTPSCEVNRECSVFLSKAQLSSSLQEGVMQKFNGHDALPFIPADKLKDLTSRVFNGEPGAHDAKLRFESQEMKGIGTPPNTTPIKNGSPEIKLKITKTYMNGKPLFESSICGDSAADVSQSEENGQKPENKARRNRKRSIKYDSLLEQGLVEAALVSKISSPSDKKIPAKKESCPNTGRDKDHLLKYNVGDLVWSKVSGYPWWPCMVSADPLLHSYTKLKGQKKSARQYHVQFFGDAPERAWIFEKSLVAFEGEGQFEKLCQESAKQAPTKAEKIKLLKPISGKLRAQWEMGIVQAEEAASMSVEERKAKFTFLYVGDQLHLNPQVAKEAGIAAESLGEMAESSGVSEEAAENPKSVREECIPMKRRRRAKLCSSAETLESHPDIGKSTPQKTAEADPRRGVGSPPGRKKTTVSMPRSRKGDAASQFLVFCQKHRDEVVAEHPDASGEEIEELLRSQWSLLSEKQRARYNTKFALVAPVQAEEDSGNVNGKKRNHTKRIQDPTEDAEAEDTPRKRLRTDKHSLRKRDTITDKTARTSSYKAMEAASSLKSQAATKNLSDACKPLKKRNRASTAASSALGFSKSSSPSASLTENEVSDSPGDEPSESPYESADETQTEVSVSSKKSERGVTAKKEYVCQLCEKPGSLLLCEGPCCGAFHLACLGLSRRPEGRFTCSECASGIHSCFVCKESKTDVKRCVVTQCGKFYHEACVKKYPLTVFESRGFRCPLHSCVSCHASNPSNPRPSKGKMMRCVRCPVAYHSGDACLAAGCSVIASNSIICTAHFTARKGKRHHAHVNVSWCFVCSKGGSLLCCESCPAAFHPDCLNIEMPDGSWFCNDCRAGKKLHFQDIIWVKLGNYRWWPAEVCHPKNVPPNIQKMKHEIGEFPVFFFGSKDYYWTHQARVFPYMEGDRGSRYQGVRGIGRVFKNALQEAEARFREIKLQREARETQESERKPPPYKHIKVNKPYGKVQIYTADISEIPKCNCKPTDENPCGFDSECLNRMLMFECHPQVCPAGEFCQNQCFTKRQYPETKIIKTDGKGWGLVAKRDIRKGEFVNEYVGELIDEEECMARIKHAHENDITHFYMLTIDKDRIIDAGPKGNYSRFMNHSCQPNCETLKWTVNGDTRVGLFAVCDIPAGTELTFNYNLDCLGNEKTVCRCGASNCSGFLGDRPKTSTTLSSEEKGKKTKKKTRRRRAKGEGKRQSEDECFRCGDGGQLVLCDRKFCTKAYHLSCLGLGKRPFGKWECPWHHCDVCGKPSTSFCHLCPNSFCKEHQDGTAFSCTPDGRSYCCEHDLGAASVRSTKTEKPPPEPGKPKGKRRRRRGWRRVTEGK

NADPH oxidase 1 = NADPH oxidase 1 (Homo sapiens, UniProt Q9Y5S8); format: functional, cell-based;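 note: Cell-based assay with luminescence read-out, IC50 derived from inhibitor dose-response curves; intracellular ROS from endogenous NOX1 in intact HT29 colon cancer cells; potency of inhibitors that lower the ROS luminescence signal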
[23] = molecular target: Protein-tyrosine kinase 2-beta (Homo sapiens, UniProt Q14289);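 note: potency of inhibitors of PYK2 kinase phosphorylation of poly-GT substrate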
Chain of Protein-tyrosine kinase 2-beta (Q14289 whole entry): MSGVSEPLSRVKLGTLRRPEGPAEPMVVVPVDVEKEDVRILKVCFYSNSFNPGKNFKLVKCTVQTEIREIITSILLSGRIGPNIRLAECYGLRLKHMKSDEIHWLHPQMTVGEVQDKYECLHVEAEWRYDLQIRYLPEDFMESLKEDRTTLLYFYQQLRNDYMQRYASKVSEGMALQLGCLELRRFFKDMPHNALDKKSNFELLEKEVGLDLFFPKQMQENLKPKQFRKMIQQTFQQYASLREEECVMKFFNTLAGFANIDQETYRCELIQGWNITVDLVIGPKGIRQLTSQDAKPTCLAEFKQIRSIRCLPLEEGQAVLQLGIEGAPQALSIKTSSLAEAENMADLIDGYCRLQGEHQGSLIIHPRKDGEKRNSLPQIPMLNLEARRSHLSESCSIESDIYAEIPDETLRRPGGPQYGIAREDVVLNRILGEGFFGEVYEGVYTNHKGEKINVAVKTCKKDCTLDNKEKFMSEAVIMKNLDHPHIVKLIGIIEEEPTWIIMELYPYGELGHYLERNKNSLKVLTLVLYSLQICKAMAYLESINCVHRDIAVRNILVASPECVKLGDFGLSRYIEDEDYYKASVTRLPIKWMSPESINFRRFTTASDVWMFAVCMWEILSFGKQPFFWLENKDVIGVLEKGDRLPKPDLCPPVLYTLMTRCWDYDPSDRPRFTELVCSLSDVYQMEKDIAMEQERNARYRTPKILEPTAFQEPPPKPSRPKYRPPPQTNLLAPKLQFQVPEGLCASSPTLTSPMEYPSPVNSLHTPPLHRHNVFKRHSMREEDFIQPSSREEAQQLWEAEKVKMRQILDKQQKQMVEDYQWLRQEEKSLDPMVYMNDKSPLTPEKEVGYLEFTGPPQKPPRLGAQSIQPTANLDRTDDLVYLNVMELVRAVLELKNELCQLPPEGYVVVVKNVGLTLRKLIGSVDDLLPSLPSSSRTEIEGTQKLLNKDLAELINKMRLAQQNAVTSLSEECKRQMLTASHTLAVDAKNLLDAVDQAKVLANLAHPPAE

Chain of G-protein coupled receptor 55 (Q9Y2T6 whole entry): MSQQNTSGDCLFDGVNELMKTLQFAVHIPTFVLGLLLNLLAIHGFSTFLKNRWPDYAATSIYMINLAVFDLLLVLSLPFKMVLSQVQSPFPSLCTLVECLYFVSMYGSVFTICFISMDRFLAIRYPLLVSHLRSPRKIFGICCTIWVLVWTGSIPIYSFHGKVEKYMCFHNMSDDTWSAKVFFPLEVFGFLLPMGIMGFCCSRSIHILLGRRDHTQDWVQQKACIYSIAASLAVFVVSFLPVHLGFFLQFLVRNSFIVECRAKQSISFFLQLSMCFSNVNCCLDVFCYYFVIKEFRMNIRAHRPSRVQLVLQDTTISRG
Chain of NADPH oxidase 1 (Q9Y5S8 whole entry): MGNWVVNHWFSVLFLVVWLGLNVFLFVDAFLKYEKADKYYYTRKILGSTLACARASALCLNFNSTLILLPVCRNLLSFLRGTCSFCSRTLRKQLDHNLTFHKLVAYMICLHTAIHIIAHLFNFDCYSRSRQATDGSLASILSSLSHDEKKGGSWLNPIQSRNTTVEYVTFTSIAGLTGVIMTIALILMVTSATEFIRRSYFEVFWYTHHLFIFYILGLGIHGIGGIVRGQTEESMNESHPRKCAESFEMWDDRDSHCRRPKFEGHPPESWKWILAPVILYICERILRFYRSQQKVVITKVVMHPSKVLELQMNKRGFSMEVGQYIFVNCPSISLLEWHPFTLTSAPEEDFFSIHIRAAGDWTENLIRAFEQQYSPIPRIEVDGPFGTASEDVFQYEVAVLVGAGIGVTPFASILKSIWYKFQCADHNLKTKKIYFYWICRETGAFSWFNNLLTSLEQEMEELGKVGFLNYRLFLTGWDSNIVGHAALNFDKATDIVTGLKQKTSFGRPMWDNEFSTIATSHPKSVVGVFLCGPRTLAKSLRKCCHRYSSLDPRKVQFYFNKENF
Chain of Induced myeloid leukemia cell differentiation protein Mcl-1 (Q07820 whole entry): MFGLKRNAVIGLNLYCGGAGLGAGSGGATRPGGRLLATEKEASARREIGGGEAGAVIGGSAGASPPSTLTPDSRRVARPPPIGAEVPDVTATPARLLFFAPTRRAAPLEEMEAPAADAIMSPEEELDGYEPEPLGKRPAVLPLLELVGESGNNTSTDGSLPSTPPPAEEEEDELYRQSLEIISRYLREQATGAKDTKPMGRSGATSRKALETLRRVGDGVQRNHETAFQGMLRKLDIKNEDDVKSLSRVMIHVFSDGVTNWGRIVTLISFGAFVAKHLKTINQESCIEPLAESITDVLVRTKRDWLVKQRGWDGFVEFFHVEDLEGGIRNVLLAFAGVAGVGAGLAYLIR
Chain of Galanin receptor type 2 (O43603 whole entry): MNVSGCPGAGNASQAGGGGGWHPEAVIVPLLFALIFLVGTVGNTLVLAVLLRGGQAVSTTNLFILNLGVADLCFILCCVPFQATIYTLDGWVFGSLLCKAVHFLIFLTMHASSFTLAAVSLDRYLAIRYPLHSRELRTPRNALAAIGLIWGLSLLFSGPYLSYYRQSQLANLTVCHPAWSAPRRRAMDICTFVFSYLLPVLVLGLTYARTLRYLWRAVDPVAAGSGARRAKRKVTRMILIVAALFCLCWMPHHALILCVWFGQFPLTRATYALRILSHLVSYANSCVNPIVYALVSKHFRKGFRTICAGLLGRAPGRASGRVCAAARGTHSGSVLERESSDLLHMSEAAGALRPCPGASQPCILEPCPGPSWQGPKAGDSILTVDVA
Chain of Bcl-2-like protein 1 (Q07817 whole entry): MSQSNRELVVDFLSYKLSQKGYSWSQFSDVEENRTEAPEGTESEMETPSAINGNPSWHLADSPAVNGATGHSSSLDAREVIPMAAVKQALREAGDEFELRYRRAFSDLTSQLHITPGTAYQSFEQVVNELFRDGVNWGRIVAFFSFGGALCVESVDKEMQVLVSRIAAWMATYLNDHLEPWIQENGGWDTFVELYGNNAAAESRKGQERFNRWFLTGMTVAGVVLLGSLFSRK

O=C(Oc1ccc2c(c1)O/C(=C\c1ccncc1)C2=O)c1ccccc1
IC50 (Bcl-2-like protein 1): 15.5 µM (not active)
EC50 [1]: > 99 µM (inactive)
EC50 [2]: 48 µM (inactive)
IC50 [3]: 11.7 µM (not active)

O=C1c2ccccc2CC1Sc1nnc(-c2ccncc2)o1 (stereo not drawn)
AC50 (Escherichia coli): 268 µM (active)
IC50 [4]: > 100 µM (active)

Cc1ccc(C(=O)CSc2nsc(C)c2C#N)cc1
EC50 [5]: < 0.1 µM (inconclusive)
EC50 [6]: 1.49 µM (active)
EC50 (H4): > 120 µM (not active)
EC50 [7]: 0.646 µM (active)
EC50 [8]: 0.976 µM (active)

CC(=O)SC(C[N+](=O)[O-])c1cn(C(C)=O)c2ccccc12 (stereo not drawn)
EC50 (BJ [9]): 5.02 µM (inconclusive)
EC50 [10]: 12.9 µM (inconclusive)
EC50 (BJ [11]): 6.21 µM (inconclusive)
EC50 [12]: > 32 µM (inactive)
EC50 [13]: 6.84 µM (active)
EC50 [14]: 6.74 µM (active)
IC50 (Galanin receptor type 2): 14.4 µM (not active)
IC50 [15]: 14.5 µM (active)
EC50 (BJ [16]): > 150 µM (inconclusive)
AC50 [17]: 1.48 µM (active)
EC50 [18]: 19.5 µM (active)
AC50 [19]: 3.54 µM (active)

CN1c2cccc3cccc(c23)N(C)C1(C)C
IC50 [20]: > 50 µM (not active)
IC50 [21]: > 50 µM (not active)
AC50 [22]: 11.4 µM (active)

Ic1ccc(-c2nc(-c3ccccc3)c(-c3ccccc3)[nH]2)cc1
IC50 (NADPH oxidase 1): > 17 µM (not active)

COCCO/C(O)=C1\C(C)=NC2=C(C(=O)CC(c3cccs3)C2)C1c1ccsc1 (stereo not drawn)
IC50 [23]: > 69.5 µM (not active)
